# Test results reported in ChEMBL document CHEMBL4311992, “Discovery of 3-(((9H-purin-6-yl)amino)methyl)-4,6-dimethylpyridin-2(1H)-one derivatives as novel tubulin polymerization inhibitors for treatment of cancer” (Eur J Med Chem, 2019).
# pIC50: −log10 of the molar value. Active and inactive are the calls of the source. The rule behind the calls is not given here.
# What was measured:
# [1] = molecular target: Mitogen-activated protein kinase kinase kinase 20 (Homo sapiens) (UniProt Q9NYL2); assay: Inhibition of recombinant full-length human ZAK assessed as residual activity at 10 uM using MBP as substrate measured after 40 mins in presence of [gamma33P]ATP by scintillation counting method
# Sequence of Mitogen-activated protein kinase kinase kinase 20 (Homo sapiens) (Q9NYL2 2-800 limits assumed): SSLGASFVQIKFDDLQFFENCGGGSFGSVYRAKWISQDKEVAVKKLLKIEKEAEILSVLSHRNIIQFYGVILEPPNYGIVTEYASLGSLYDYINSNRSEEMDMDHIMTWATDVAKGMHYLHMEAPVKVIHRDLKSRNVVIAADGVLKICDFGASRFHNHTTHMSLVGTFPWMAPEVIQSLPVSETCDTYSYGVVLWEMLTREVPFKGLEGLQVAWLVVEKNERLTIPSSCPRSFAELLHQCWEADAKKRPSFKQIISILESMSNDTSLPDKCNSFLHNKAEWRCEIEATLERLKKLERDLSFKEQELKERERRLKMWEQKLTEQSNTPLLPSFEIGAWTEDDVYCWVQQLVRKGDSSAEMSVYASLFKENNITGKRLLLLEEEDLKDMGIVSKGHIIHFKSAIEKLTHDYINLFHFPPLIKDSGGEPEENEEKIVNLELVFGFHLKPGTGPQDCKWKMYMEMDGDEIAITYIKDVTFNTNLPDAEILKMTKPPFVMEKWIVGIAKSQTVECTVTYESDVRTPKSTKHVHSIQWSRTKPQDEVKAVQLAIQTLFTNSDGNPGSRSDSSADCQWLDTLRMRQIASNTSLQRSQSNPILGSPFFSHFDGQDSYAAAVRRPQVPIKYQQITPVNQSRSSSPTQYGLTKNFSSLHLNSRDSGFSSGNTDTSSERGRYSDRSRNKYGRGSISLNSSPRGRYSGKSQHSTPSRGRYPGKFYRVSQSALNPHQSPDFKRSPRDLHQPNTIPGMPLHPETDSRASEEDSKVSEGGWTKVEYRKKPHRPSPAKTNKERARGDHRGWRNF
# [2] = molecular target: DNA-dependent protein kinase catalytic subunit (Homo sapiens) (UniProt P78527); assay: Inhibition of recombinant full-length human DNA-PK assessed as residual activity at 10 uM using GST-cMyc-p53 as substrate measured after 40 mins by fluorescence assay
# Sequence of DNA-dependent protein kinase catalytic subunit (Homo sapiens) (P78527 whole entry): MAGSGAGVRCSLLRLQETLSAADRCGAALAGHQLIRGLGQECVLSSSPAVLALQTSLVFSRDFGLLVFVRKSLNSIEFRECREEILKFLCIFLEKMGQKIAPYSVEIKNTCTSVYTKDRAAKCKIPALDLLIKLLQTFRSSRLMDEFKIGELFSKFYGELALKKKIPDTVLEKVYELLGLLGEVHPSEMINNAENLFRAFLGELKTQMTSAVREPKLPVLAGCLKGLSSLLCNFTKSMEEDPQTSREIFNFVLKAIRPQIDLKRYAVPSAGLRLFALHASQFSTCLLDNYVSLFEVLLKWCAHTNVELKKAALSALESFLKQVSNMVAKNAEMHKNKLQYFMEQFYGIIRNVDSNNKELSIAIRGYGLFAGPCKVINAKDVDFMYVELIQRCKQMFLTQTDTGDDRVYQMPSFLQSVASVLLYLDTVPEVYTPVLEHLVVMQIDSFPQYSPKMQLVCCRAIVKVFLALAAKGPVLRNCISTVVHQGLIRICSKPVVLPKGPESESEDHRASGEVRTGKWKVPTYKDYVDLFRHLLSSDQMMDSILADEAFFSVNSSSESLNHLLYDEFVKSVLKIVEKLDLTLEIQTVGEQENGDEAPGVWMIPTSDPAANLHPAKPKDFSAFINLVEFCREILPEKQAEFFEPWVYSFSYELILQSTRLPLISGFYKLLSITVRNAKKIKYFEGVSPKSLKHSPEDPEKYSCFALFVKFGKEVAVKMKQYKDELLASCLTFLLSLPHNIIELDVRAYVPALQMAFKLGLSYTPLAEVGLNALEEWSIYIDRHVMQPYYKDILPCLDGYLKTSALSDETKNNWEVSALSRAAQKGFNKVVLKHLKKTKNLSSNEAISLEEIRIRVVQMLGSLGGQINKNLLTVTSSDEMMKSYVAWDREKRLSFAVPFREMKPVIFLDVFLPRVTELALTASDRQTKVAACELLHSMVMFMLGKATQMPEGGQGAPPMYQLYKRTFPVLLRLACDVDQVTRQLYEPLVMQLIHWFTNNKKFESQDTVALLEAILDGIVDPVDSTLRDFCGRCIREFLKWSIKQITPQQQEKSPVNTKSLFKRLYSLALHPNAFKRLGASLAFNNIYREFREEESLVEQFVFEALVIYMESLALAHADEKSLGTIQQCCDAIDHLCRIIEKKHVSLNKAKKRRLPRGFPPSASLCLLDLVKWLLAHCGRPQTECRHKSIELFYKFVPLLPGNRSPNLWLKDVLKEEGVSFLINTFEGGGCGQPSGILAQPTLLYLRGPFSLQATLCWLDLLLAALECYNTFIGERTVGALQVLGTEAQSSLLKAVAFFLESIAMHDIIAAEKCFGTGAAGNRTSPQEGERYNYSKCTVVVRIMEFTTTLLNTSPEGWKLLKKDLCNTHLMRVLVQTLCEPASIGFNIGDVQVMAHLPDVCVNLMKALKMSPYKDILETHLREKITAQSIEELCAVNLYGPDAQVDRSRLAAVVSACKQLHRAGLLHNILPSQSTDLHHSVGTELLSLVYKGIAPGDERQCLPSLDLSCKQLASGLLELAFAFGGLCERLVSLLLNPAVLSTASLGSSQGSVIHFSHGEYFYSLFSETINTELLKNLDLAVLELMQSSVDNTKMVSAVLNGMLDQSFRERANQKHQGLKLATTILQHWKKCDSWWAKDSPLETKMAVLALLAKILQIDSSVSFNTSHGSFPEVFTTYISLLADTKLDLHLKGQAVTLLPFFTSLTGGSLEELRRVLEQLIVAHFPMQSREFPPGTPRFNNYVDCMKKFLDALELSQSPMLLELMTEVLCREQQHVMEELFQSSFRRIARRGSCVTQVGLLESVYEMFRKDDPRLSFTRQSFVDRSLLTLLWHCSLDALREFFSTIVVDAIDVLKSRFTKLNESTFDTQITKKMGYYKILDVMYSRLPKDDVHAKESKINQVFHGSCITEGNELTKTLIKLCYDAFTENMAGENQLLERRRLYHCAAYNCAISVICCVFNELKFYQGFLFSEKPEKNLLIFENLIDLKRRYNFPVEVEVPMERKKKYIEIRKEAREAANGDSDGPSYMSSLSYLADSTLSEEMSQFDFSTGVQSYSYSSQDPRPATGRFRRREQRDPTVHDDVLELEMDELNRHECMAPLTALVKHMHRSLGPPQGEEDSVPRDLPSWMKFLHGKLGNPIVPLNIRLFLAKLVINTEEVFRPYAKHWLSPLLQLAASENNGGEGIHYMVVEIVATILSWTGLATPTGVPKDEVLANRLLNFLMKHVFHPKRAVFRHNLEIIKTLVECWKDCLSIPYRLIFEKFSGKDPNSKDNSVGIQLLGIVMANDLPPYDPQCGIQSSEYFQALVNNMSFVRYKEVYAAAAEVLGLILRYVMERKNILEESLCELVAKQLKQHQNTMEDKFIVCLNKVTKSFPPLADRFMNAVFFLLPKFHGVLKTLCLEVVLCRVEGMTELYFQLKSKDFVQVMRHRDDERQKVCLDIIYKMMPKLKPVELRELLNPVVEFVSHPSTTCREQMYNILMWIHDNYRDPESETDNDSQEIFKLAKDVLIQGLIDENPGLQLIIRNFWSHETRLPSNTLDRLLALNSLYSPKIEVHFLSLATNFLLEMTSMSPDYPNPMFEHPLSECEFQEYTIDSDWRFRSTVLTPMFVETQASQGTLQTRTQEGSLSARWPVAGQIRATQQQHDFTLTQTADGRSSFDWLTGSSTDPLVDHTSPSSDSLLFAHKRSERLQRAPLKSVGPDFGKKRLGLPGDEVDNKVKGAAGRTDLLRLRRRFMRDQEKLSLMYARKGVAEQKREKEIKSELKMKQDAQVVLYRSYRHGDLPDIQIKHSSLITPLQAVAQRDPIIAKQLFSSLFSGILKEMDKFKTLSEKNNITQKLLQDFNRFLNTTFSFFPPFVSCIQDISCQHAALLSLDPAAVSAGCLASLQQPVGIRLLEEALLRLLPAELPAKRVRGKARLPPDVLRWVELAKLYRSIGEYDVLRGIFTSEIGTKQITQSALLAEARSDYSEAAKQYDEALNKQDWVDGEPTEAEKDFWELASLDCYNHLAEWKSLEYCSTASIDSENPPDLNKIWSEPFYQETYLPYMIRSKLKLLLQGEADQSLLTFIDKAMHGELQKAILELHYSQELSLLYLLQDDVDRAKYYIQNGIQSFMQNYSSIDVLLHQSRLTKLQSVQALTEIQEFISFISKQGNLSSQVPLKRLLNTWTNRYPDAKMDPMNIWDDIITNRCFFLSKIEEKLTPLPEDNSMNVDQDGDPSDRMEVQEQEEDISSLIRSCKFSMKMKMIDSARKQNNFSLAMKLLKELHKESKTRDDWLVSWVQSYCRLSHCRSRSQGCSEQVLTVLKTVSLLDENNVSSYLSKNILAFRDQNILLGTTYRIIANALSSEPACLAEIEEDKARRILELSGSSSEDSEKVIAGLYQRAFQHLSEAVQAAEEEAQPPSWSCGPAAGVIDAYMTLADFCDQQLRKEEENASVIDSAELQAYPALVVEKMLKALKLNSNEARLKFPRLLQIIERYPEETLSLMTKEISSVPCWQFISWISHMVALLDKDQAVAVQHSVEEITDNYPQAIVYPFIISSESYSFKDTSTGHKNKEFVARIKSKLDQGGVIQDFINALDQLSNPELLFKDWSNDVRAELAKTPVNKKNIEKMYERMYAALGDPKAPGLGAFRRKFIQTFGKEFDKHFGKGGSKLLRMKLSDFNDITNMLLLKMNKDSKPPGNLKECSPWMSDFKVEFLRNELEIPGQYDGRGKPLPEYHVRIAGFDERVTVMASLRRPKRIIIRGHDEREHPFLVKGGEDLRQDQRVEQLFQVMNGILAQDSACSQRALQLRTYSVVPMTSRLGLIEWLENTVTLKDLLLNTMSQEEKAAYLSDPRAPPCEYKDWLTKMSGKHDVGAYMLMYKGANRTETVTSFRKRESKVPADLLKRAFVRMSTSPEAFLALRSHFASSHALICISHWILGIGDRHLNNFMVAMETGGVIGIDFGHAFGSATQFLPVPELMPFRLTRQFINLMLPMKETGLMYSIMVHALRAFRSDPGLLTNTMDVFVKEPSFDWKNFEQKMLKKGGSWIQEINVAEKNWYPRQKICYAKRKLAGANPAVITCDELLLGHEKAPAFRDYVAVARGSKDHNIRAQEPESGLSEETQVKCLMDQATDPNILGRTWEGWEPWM
# A549 = assay: cells; conditions: Homo sapiens, A549, 72 h
# Description: Antiproliferative activity against human A549 cells after 72 hrs by MTT assay
# [3] = molecular target: Serine/threonine-protein kinase 10 (Homo sapiens) (UniProt O94804); assay: Inhibition of recombinant human LOK (1 to 348 residues) assessed as residual activity at 10 uM using RLGRDKYKTLRQIRQ as substrate measured after 40 mins in presence of [gamma33P]ATP by scintillation counting method
# SW-620 [4] = assay: Induction of apoptosis in human SW620 cells assessed as early apoptotic cells at 50 nM measured after 48 hrs by Annexin V-FITC/propidium iodide staining-based flow cytometry (reference value: 0.773%); type: functional
# [5] = test system: Serine/threonine-protein kinase TAO3 (Homo sapiens), Q9H2K8 [UNDEFINED MUTATION]; assay: Inhibition of human TAO3 (1 to 411 residues) using myelin basic protein as substrate measured after 40 mins in presence of [gamma33P]ATP by scintillation counting method; set-up: scale not given: the % may be the effect or the level left
# Mus musculus = species: Mus musculus; assay: Inhibition of recombinant full-length mouse PI3K p110alpha/p85alpha E545K mutant assessed as residual activity at 10 uM using phosphatidylinositol-4, 5-bisphosphate as substrate measured after 40 mins by HTRF assay
# SW-620 [6] = assay: Induction of apoptosis in human SW620 cells assessed as increase in Bax expression up to 200 nM measured after 48 hrs by Western blot analysis; type: functional, cell-based
# [7] = molecular target: Calcium/calmodulin-dependent protein kinase type II subunit delta (Homo sapiens) (UniProt Q13557); assay: Inhibition of recombinant full-length human CaMK2delta assessed as residual activity at 10 uM using calmodulin as substrate measured after 40 mins in presence of [gamma33P]ATP by scintillation counting method
# [8] = molecular target: Serine/threonine-protein kinase tousled-like 2 (Homo sapiens) (UniProt Q86UE8); assay: Inhibition of human TLK2 (387 to end residues) using casein as substrate measured after 40 mins in presence of [gamma33P]ATP by scintillation counting method; set-up: scale not given: the % may be the effect or the level left
# [9] = molecular target: Tyrosine-protein kinase ITK/TSK (Homo sapiens) (UniProt Q08881); assay: Inhibition of recombinant human ITK (352 to 617 residues) assessed as residual activity at 10 uM using myelin basic protein as substrate measured after 40 mins in presence of [gamma33P]ATP by scintillation counting method
# [10] = molecular target: Focal adhesion kinase 1 (Homo sapiens) (UniProt Q05397); assay: Inhibition of recombinant human FAK (411 to 686 residues) assessed as residual activity at 10 uM using EEEEYEEEEEEYYIIEEEEEEYEEEEEEYYEEEEEEKKKK as substrate measured after 40 mins in presence of [gamma33P]ATP by scintillation counting method
smiles,measurement,setting,value
Cc1cc(C)c(CNc2nc(Cl)nc3c2ncn3C2CCCC2)c(=O)[nH]1,Activity,[1],97%
same,Activity,[2],99%
same,pIC50,A549,7.00
same,Activity,[3],91.5%
same,Activity,SW-620 [4],1.01%
same,Activity,[5],97%
same,Activity,Mus musculus,99%
same,Activity,SW-620 [6],Active
same,Activity,[7],120%
same,Activity,[8],119%
same,Activity,[9],63 to 75%
same,Activity,[10],104%
